Holding throughout (test): growth of human tumour cells (NCI), 48 h
Test [1] relates to CAKI-1 renal.
For test [2], the system named is LOX IMVI melanoma.
The subject of test [3] is SNB-19 CNS.
For test [4], the system named is DU-145 prostate.
For test [5], the system named is SF-295 CNS.
Test [6] has as its system OVCAR-4 ovarian.
Test [7] deals with PC-3 prostate.
The subject of test [8] is SK-MEL-2 melanoma.
Test [9] relates to OVCAR-3 ovarian.
The subject of test [10] is SF-268 CNS.

Each structure is given as a SMILES string.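 Results reflect a 48-hour exposure of cells in 96-well plates to compound at five concentrations. GI50 = concentration required for 50% inhibition of growth. TGI marks complete inhibition of growth.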

In the case of `COC(=O)c1cccc2c1Oc1ccccc1S2`, the TGI in [1] was 65.1 µM; in test [2] it was > 100 µM; in test [3], > 100 µM; in test [4], > 100 µM; in test [5], > 100 µM; in [6] it was > 100 µM. The TGI in test [7], in test [8], in [9] and in [10] was > 100 µM in each case.

For `CC(C)(C)n1cc(-c2ccnc(NCCCNS(=O)(=O)c3ccc(Cl)cc3)c2)c(-c2cccc(O)c2)n1`, the GI50 in [1] was 2060 nM; in [2], 1730 nM; in test [3], 2180 nM; in test [4] it was 2750 nM; in test [5], 1790 nM; in test [6] it was 1940 nM. Further, the GI50 in test [7] is 1360 nM; in test [8], 1920 nM; in [9], 1890 nM; in test [10], 2180 nM. The TGI came out at 5.35 µM in test [1]; 3.15 µM in [2]; 4.96 µM in [3]; 7.63 µM in test [4]; 3.37 µM in test [5]; 4.64 µM in [6]. Further, the TGI in [7] came to 3.69 µM; in [8], 3.89 µM; in test [9], 3.72 µM; in test [10] it was 5.78 µM.

For the origin of these results see PubChem BioAssay (NCI).
